#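 Cells were grown in 96-well plates and exposed to each compound for 48 hours at five concentrations; endpoints were interpolated linearly between bracketing concentrations, or set to the highest concentration if not reached. The concentration for 50% growth inhibition is given as GI50. TGI: total growth inhibition.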
# Legend:
# Experiment in all cases: NCI tumour cell line growth inhibition, 48 h
# 786-0 renal = system: 786-0 renal
# A498 renal = system: A498 renal
# A549 NSCLC = system: A549 NSCLC
# ACHN renal = system: ACHN renal
# BT-549 breast = system: BT-549 breast
# CAKI-1 renal = system: CAKI-1 renal
# CCRF-CEM leukemia = system: CCRF-CEM leukemia
# COLO 205 colon = system: COLO 205 colon
# DU-145 prostate = system: DU-145 prostate
# EKVX NSCLC = system: EKVX NSCLC
# HCC-2998 colon = system: HCC-2998 colon
# HCT-116 colon = system: HCT-116 colon
# HCT-15 colon = system: HCT-15 colon
# HL-60(TB) leukemia = system: HL-60(TB) leukemia
# HOP-62 NSCLC = system: HOP-62 NSCLC
# HOP-92 NSCLC = system: HOP-92 NSCLC
# HS 578T breast = system: HS 578T breast
# HT29 colon = system: HT29 colon
# IGROV1 ovarian = system: IGROV1 ovarian
# K-562 leukemia = system: K-562 leukemia
# KM12 colon = system: KM12 colon
# M14 melanoma = system: M14 melanoma
# MALME-3M melanoma = system: MALME-3M melanoma
# MCF7 breast = system: MCF7 breast
# MDA-MB-231 breast = system: MDA-MB-231 breast
# MDA-MB-435 = system: MDA-MB-435
# MDA-MB-468 breast = system: MDA-MB-468 breast
# MOLT-4 leukemia = system: MOLT-4 leukemia
# NCI-H226 lung = system: NCI-H226 lung
# NCI-H23 lung = system: NCI-H23 lung
# NCI-H460 lung = system: NCI-H460 lung
# NCI-H522 lung = system: NCI-H522 lung
# NCI/ADR-RES ovarian = system: NCI/ADR-RES ovarian
# OVCAR-3 ovarian = system: OVCAR-3 ovarian
# OVCAR-4 ovarian = system: OVCAR-4 ovarian
# OVCAR-5 ovarian = system: OVCAR-5 ovarian
# OVCAR-8 ovarian = system: OVCAR-8 ovarian
# PC-3 prostate = system: PC-3 prostate
# RPMI-8226 leukemia = system: RPMI-8226 leukemia
# RXF 393 renal = system: RXF 393 renal
# SF-268 CNS = system: SF-268 CNS
# SF-295 CNS = system: SF-295 CNS
# SF-539 CNS = system: SF-539 CNS
# SK-MEL-2 melanoma = system: SK-MEL-2 melanoma
# SK-MEL-28 melanoma = system: SK-MEL-28 melanoma
# SK-MEL-5 melanoma = system: SK-MEL-5 melanoma
# SK-OV-3 ovarian = system: SK-OV-3 ovarian
# SN12C renal = system: SN12C renal
# SNB-19 CNS = system: SNB-19 CNS
# SNB-75 CNS = system: SNB-75 CNS
# SR leukemia = system: SR leukemia
# SW-620 colon = system: SW-620 colon
# T-47D breast = system: T-47D breast
# TK-10 renal = system: TK-10 renal
# U251 CNS = system: U251 CNS
# UACC-257 melanoma = system: UACC-257 melanoma
# UACC-62 melanoma = system: UACC-62 melanoma
# UO-31 renal = system: UO-31 renal
compound,measurement,setting,value
Cn1cc(-c2cc(N)n3nc(-c4cn(C)c5ccccc45)cc3n2)c2cc(F)ccc21,GI50,786-0 renal,1.51 µM
same,TGI,786-0 renal,2.92 µM
same,GI50,A498 renal,14.6 µM
same,TGI,A498 renal,29 µM
same,GI50,A549 NSCLC,2.17 µM
same,TGI,A549 NSCLC,6.44 µM
same,GI50,ACHN renal,1.77 µM
same,TGI,ACHN renal,3.45 µM
same,GI50,BT-549 breast,10.5 µM
same,TGI,BT-549 breast,25.3 µM
same,GI50,CAKI-1 renal,1.84 µM
same,TGI,CAKI-1 renal,3.98 µM
same,GI50,CCRF-CEM leukemia,3.19 µM
same,TGI,CCRF-CEM leukemia,24.2 µM
same,GI50,COLO 205 colon,1.89 µM
same,TGI,COLO 205 colon,3.57 µM
same,GI50,DU-145 prostate,4.15 µM
same,TGI,DU-145 prostate,22.3 µM
same,GI50,EKVX NSCLC,3.02 µM
same,TGI,EKVX NSCLC,15.7 µM
same,GI50,HCC-2998 colon,1.78 µM
same,TGI,HCC-2998 colon,3.32 µM
same,GI50,HCT-116 colon,1.76 µM
same,TGI,HCT-116 colon,3.18 µM
same,GI50,HCT-15 colon,1.79 µM
same,TGI,HCT-15 colon,4.02 µM
same,GI50,HL-60(TB) leukemia,2.1 µM
same,TGI,HL-60(TB) leukemia,5.11 µM
same,GI50,HOP-62 NSCLC,1.96 µM
same,TGI,HOP-62 NSCLC,4.82 µM
same,GI50,HOP-92 NSCLC,2.06 µM
same,TGI,HOP-92 NSCLC,4.2 µM
same,GI50,HS 578T breast,2.39 µM
same,TGI,HS 578T breast,6.45 µM
same,GI50,HT29 colon,1.74 µM
same,TGI,HT29 colon,3.34 µM
same,GI50,IGROV1 ovarian,2.19 µM
same,TGI,IGROV1 ovarian,5.18 µM
same,GI50,K-562 leukemia,2.72 µM
same,TGI,K-562 leukemia,7.52 µM
same,GI50,KM12 colon,2.47 µM
same,TGI,KM12 colon,6.13 µM
same,GI50,M14 melanoma,1.83 µM
same,TGI,M14 melanoma,3.52 µM
same,GI50,MALME-3M melanoma,1.72 µM
same,TGI,MALME-3M melanoma,3.14 µM
same,GI50,MCF7 breast,1.77 µM
same,TGI,MCF7 breast,3.95 µM
same,GI50,MDA-MB-231 breast,1.97 µM
same,TGI,MDA-MB-231 breast,3.66 µM
same,GI50,MDA-MB-435,1.78 µM
same,TGI,MDA-MB-435,3.33 µM
same,GI50,MDA-MB-468 breast,1.92 µM
same,TGI,MDA-MB-468 breast,4.11 µM
same,GI50,MOLT-4 leukemia,2.44 µM
same,TGI,MOLT-4 leukemia,7.25 µM
same,GI50,NCI-H226 lung,21.7 µM
same,TGI,NCI-H226 lung,68.5 µM
same,GI50,NCI-H23 lung,2.08 µM
same,TGI,NCI-H23 lung,4.78 µM
same,GI50,NCI-H460 lung,2.02 µM
same,TGI,NCI-H460 lung,4.2 µM
same,GI50,NCI-H522 lung,1.65 µM
same,TGI,NCI-H522 lung,3.42 µM
same,GI50,NCI/ADR-RES ovarian,2.41 µM
same,TGI,NCI/ADR-RES ovarian,6.26 µM
same,GI50,OVCAR-3 ovarian,2.69 µM
same,TGI,OVCAR-3 ovarian,6.53 µM
same,GI50,OVCAR-4 ovarian,2.49 µM
same,TGI,OVCAR-4 ovarian,6.55 µM
same,GI50,OVCAR-5 ovarian,2.37 µM
same,TGI,OVCAR-5 ovarian,6.49 µM
same,GI50,OVCAR-8 ovarian,1.97 µM
same,TGI,OVCAR-8 ovarian,3.95 µM
same,GI50,PC-3 prostate,2.2 µM
same,TGI,PC-3 prostate,5.54 µM
same,GI50,RPMI-8226 leukemia,2.93 µM
same,TGI,RPMI-8226 leukemia,8.56 µM
same,GI50,RXF 393 renal,1.97 µM
same,TGI,RXF 393 renal,3.72 µM
same,GI50,SF-268 CNS,3.35 µM
same,TGI,SF-268 CNS,13.4 µM
same,GI50,SF-295 CNS,1.78 µM
same,TGI,SF-295 CNS,3.68 µM
same,GI50,SF-539 CNS,1.76 µM
same,TGI,SF-539 CNS,3.34 µM
same,GI50,SK-MEL-2 melanoma,1.82 µM
same,TGI,SK-MEL-2 melanoma,3.63 µM
same,GI50,SK-MEL-28 melanoma,1.78 µM
same,TGI,SK-MEL-28 melanoma,3.44 µM
same,GI50,SK-MEL-5 melanoma,1.87 µM
same,TGI,SK-MEL-5 melanoma,3.89 µM
same,GI50,SK-OV-3 ovarian,3.32 µM
same,TGI,SK-OV-3 ovarian,12.5 µM
same,GI50,SN12C renal,1.71 µM
same,TGI,SN12C renal,3.14 µM
same,GI50,SNB-19 CNS,3.09 µM
same,TGI,SNB-19 CNS,12.7 µM
same,GI50,SNB-75 CNS,12.9 µM
same,TGI,SNB-75 CNS,28.6 µM
same,GI50,SR leukemia,2.16 µM
same,TGI,SR leukemia,7.54 µM
same,GI50,SW-620 colon,2.01 µM
same,TGI,SW-620 colon,4.05 µM
same,GI50,T-47D breast,2.63 µM
same,TGI,T-47D breast,8.91 µM
same,GI50,TK-10 renal,2.01 µM
same,TGI,TK-10 renal,8.26 µM
same,GI50,U251 CNS,1.82 µM
same,TGI,U251 CNS,3.51 µM
same,GI50,UACC-257 melanoma,1.75 µM
same,TGI,UACC-257 melanoma,3.39 µM
same,GI50,UACC-62 melanoma,1.68 µM
same,TGI,UACC-62 melanoma,3.09 µM
same,GI50,UO-31 renal,1.62 µM
same,TGI,UO-31 renal,3.06 µM

# — PubChem BioAssay (NCI)
